Reference: ChEMBL document CHEMBL1147867, “Identification of antitumour activity of novel derivatives of 8-aryl-2,6,7,8-tetrahydroimidazo[2,1-c][1,2,4]triazine-3,4-dione and 8-aryl-4-imino-2,3,7,8-tetrahydroimidazo[2,1-c][1,2,4]triazin-3(6H)-one” (Bioorg Med Chem, 2007)
Activity calls are given as the source filed them. No cut-off for these calls is given here.

Tests used:
A549 [1] = assay: Anticancer activity against human A549 cells at 50 ug/ml after 72 hrs; format: functional; details: A549, 72 h
[2] = Cytotoxicity against Vero cells at 10 ug/ml after 72 hrs; format: cell-based; details: chlorocebus sabaeus, read-out: Inhibition
A549 [3] = assay: Anticancer activity against human A549 cells at 10 ug/ml after 72 hrs; format: functional; details: A549, 72 h
Jurkat = assay: Anticancer activity against human jurkat cells; format: functional, cell-based
HT-29 = assay: Anticancer activity against human HT 29 cells; format: functional, cell-based
HeLa [4] = assay: Cytotoxicity against human HeLa cells at 50 ug/ml after 72 hrs; format: functional
T47D [5] = assay: Cytotoxicity against human T47D cells at 10 ug/ml after 72 hrs; format: functional
[6] = Cytotoxicity against Vero cells at 50 ug/ml after 72 hrs; format: cell-based; details: chlorocebus sabaeus, read-out: Inhibition
T47D [7] = assay: Cytotoxicity against human T47D cells at 50 ug/ml after 72 hrs; format: functional
HeLa [8] = assay: Cytotoxicity against human HeLa cells at 10 ug/ml after 72 hrs; format: functional
[9] = Cytotoxicity against human LS180 cells at 10 ug/ml after 72 hrs; format: functional; details: LS180, 72 h
[10] = Cytotoxicity against human LS180 cells at 50 ug/ml after 72 hrs; format: functional; details: LS180, 72 h
[11] = Cell viability in HSF cells at 50 uM after 24 hrs by MTT assay; format: cell-based, Fibroblast; details: human, read-out: Activity
RPMI-8226 [12] = assay: Cell viability in human RPMI 8226 ECACC 87012702 cancer cells at 100 uM after 24 hrs by MTT assay; format: functional
[13] = Cell viability in HSF cells at 100 uM after 24 hrs by MTT assay; format: functional, Homo sapiens, Fibroblast
[14] = Cell viability in HSF cells at 1 uM after 24 hrs by MTT assay; format: cell-based, Fibroblast; details: human, read-out: Activity
[15] = Acute toxicity in mouse; format: organism-based; details: in vivo
RPMI-8226 [16] = assay: Cell viability in human RPMI 8226 ECACC 87012702 cancer cells at 1 uM after 24 hrs by MTT assay; format: functional
HeLa [17] = assay: Induction of DNA damage in HeLa cells at 37.9 uM; format: functional, cell-based; details: Homo sapiens
LS180 = assay: Induction of DNA damage in LS180 cells at 37.9 uM; format: functional, cell-based; details: Homo sapiens
T47D [18] = assay: Induction of DNA damage in T47D cells at 37.9 uM; format: functional, cell-based; details: Homo sapiens
RPMI-8226 [19] = assay: Cell viability in human RPMI 8226 ECACC 87012702 cancer cells at 50 uM after 24 hrs by MTT assay; format: functional

Molecule `Cc1ccc(N2CCn3c2n[nH]c(=O)c3=N)cc1` has an inhibition at 50 µg/mL (A549 [1]) of 38%, a cytotoxicity at 72 h, 10 ug/ml [2] of 0% and an inhibition at 10 µg/mL (A549 [3]) of 37%. For the same molecule, the Activity (Jurkat) was “Active”, the Activity (HT-29) was “Active” and the inhibition at 50 µg/mL (HeLa [4]) was 0%. For the same molecule, the inhibition at 10 µg/mL (T47D [5]) was 0%, the cytotoxicity at 72 h, 50 ug/ml [6] was 0% and the inhibition at 50 µg/mL (T47D [7]) was 0%. The inhibition at 10 µg/mL (HeLa [8]) was 0%, the inhibition at 10 µg/mL [9] was 32% and the inhibition at 50 µg/mL [10] was 45%.

`O=c1[nH]nc2n(c1=O)CCN2c1ccc(Cl)cc1` gave a viability at 24 h, 50 µM [11] of 95%, an inhibition at 50 µg/mL (A549 [1]) of 15% and an Activity (RPMI-8226 [12]) of 61%. For the same molecule, the cytotoxicity at 72 h, 10 ug/ml [2] was 0%, the Activity [13] was 96% and the viability at 24 h, 1 µM [14] was 99%. It also gave an inhibition at 10 µg/mL (A549 [3]) of 0%, an inhibition at 50 µg/mL (HeLa [4]) of 26% and an LD50 [15] greater than 2000 mg/kg. The Activity (RPMI-8226 [16]) was 104%, the inhibition at 10 µg/mL (T47D [5]) was 5% and the cytotoxicity at 72 h, 50 ug/ml [6] was 7%. For the same molecule, the inhibition at 50 µg/mL (T47D [7]) was 1%, the Activity (HeLa [17]) was “Active” and the inhibition at 10 µg/mL (HeLa [8]) was 2%. For the same molecule, the Activity (LS180) was “Active”, the Activity (T47D [18]) was “Active” and the inhibition at 10 µg/mL [9] was 50%. For the same molecule, the inhibition at 50 µg/mL [10] was 35% and the Activity (RPMI-8226 [19]) was 89%.
